Reference: PubChem BioAssay (NCI)
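Following 48 hours of exposure in 96-well plates, responses at five concentrations were used to interpolate endpoints linearly. The concentration for full growth arrest is given as TGI.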

Key:
Experiment in all cases: NCI anticancer screen, dose series, 48 h
EKVX NSCLC = system: EKVX NSCLC
HOP-62 NSCLC = system: HOP-62 NSCLC
IGROV1 ovarian = system: IGROV1 ovarian
MOLT-4 leukemia = system: MOLT-4 leukemia
RPMI-8226 leukemia = system: RPMI-8226 leukemia
HCT-116 colon = system: HCT-116 colon
OVCAR-4 ovarian = system: OVCAR-4 ovarian
MDA-N = system: MDA-N
KM12 colon = system: KM12 colon
SK-MEL-2 melanoma = system: SK-MEL-2 melanoma
TK-10 renal = system: TK-10 renal
786-0 renal = system: 786-0 renal
ACHN renal = system: ACHN renal
LOX IMVI melanoma = system: LOX IMVI melanoma
A549 NSCLC = system: A549 NSCLC
HT29 colon = system: HT29 colon
MDA-MB-231 breast = system: MDA-MB-231 breast
HOP-92 NSCLC = system: HOP-92 NSCLC
T-47D breast = system: T-47D breast
NCI-H460 lung = system: NCI-H460 lung
NCI/ADR-RES ovarian = system: NCI/ADR-RES ovarian
PC-3 prostate = system: PC-3 prostate
OVCAR-5 ovarian = system: OVCAR-5 ovarian
SNB-19 CNS = system: SNB-19 CNS
HS 578T breast = system: HS 578T breast
U251 CNS = system: U251 CNS
SW-620 colon = system: SW-620 colon
UACC-257 melanoma = system: UACC-257 melanoma
HCT-15 colon = system: HCT-15 colon
RXF 393 renal = system: RXF 393 renal
NCI-H226 lung = system: NCI-H226 lung
SR leukemia = system: SR leukemia
COLO 205 colon = system: COLO 205 colon
HCC-2998 colon = system: HCC-2998 colon
HL-60(TB) leukemia = system: HL-60(TB) leukemia
NCI-H522 lung = system: NCI-H522 lung
SK-MEL-5 melanoma = system: SK-MEL-5 melanoma
MCF7 breast = system: MCF7 breast
UACC-62 melanoma = system: UACC-62 melanoma
MALME-3M melanoma = system: MALME-3M melanoma
A498 renal = system: A498 renal
SF-295 CNS = system: SF-295 CNS
SK-OV-3 ovarian = system: SK-OV-3 ovarian
UO-31 renal = system: UO-31 renal
BT-549 breast = system: BT-549 breast
SK-MEL-28 melanoma = system: SK-MEL-28 melanoma
SF-539 CNS = system: SF-539 CNS
DU-145 prostate = system: DU-145 prostate
CAKI-1 renal = system: CAKI-1 renal
K-562 leukemia = system: K-562 leukemia
OVCAR-3 ovarian = system: OVCAR-3 ovarian
SN12C renal = system: SN12C renal
SF-268 CNS = system: SF-268 CNS
CCRF-CEM leukemia = system: CCRF-CEM leukemia
NCI-H23 lung = system: NCI-H23 lung
OVCAR-8 ovarian = system: OVCAR-8 ovarian
M14 melanoma = system: M14 melanoma
MDA-MB-435 = system: MDA-MB-435
SNB-75 CNS = system: SNB-75 CNS

`CN1CCN(CC(=O)Nc2cccc3ccccc23)CC1` was tested, and the TGI (EKVX NSCLC) was > 100 µM, the TGI (HOP-62 NSCLC) was > 100 µM and the TGI (IGROV1 ovarian) was > 100 µM. The TGI (MOLT-4 leukemia) was > 100 µM, the TGI (RPMI-8226 leukemia) was > 100 µM and the TGI (HCT-116 colon) was > 100 µM. For the same compound, the TGI (OVCAR-4 ovarian) was > 100 µM, the TGI (MDA-N) was > 100 µM and the TGI (KM12 colon) was > 100 µM. The TGI (SK-MEL-2 melanoma) was > 100 µM, the TGI (TK-10 renal) was > 100 µM and the TGI (786-0 renal) was > 100 µM. For the same compound, the TGI (ACHN renal) was > 100 µM, the TGI (LOX IMVI melanoma) was > 100 µM and the TGI (A549 NSCLC) was > 100 µM. For the same compound, the TGI (HT29 colon) was > 31.6 µM, the TGI (MDA-MB-231 breast) was > 100 µM and the TGI (HOP-92 NSCLC) was > 100 µM. The TGI (T-47D breast) was > 100 µM, the TGI (NCI-H460 lung) was > 100 µM and the TGI (NCI/ADR-RES ovarian) was > 100 µM. For the same compound, the TGI (PC-3 prostate) was > 100 µM, the TGI (OVCAR-5 ovarian) was > 100 µM and the TGI (SNB-19 CNS) was > 100 µM. For the same compound, the TGI (HS 578T breast) was > 100 µM, the TGI (U251 CNS) was > 100 µM and the TGI (SW-620 colon) was > 100 µM. For the same compound, the TGI (UACC-257 melanoma) was > 100 µM, the TGI (HCT-15 colon) was > 100 µM and the TGI (RXF 393 renal) was > 100 µM. The TGI (NCI-H226 lung) was > 100 µM, the TGI (SR leukemia) was > 100 µM and the TGI (COLO 205 colon) was > 100 µM. The TGI (HCC-2998 colon) was > 100 µM, the TGI (HL-60(TB) leukemia) was > 100 µM and the TGI (NCI-H522 lung) was > 100 µM. For the same compound, the TGI (SK-MEL-5 melanoma) was > 100 µM, the TGI (MCF7 breast) was > 100 µM and the TGI (UACC-62 melanoma) was > 100 µM. The TGI (MALME-3M melanoma) was > 100 µM, the TGI (A498 renal) was > 100 µM and the TGI (SF-295 CNS) was > 100 µM. For the same compound, the TGI (SK-OV-3 ovarian) was > 100 µM, the TGI (UO-31 renal) was > 100 µM and the TGI (BT-549 breast) was > 100 µM. The TGI (SK-MEL-28 melanoma) was > 100 µM, the TGI (SF-539 CNS) was > 100 µM and the TGI (DU-145 prostate) was > 100 µM. The TGI (CAKI-1 renal) was > 100 µM, the TGI (K-562 leukemia) was > 100 µM and the TGI (OVCAR-3 ovarian) was > 100 µM. For the same compound, the TGI (SN12C renal) was > 100 µM, the TGI (SF-268 CNS) was > 100 µM and the TGI (CCRF-CEM leukemia) was > 100 µM. For the same compound, the TGI (NCI-H23 lung) was > 100 µM, the TGI (OVCAR-8 ovarian) was > 100 µM and the TGI (M14 melanoma) was > 100 µM. For the same compound, the TGI (MDA-MB-435) was > 100 µM.
`N=C(N)SCCc1ccncc1` was tested, and the TGI (EKVX NSCLC) was > 100 µM, the TGI (HOP-62 NSCLC) was > 100 µM and the TGI (IGROV1 ovarian) was > 100 µM. For the same compound, the TGI (MOLT-4 leukemia) was > 100 µM, the TGI (RPMI-8226 leukemia) was > 100 µM and the TGI (HCT-116 colon) was > 100 µM. For the same compound, the TGI (OVCAR-4 ovarian) was > 100 µM, the TGI (MDA-N) was > 100 µM and the TGI (KM12 colon) was > 100 µM. For the same compound, the TGI (SK-MEL-2 melanoma) was > 100 µM, the TGI (TK-10 renal) was > 100 µM and the TGI (786-0 renal) was > 100 µM. For the same compound, the TGI (ACHN renal) was > 100 µM, the TGI (LOX IMVI melanoma) was > 100 µM and the TGI (A549 NSCLC) was > 100 µM. The TGI (HT29 colon) was > 100 µM, the TGI (MDA-MB-231 breast) was > 100 µM and the TGI (HOP-92 NSCLC) was > 100 µM. For the same compound, the TGI (T-47D breast) was > 100 µM, the TGI (NCI-H460 lung) was > 100 µM and the TGI (NCI/ADR-RES ovarian) was > 100 µM. The TGI (PC-3 prostate) was > 100 µM, the TGI (OVCAR-5 ovarian) was > 100 µM and the TGI (SNB-75 CNS) was > 100 µM. For the same compound, the TGI (SNB-19 CNS) was > 100 µM, the TGI (HS 578T breast) was > 100 µM and the TGI (U251 CNS) was > 100 µM. For the same compound, the TGI (SW-620 colon) was > 100 µM, the TGI (UACC-257 melanoma) was > 100 µM and the TGI (HCT-15 colon) was > 100 µM. For the same compound, the TGI (RXF 393 renal) was > 100 µM, the TGI (NCI-H226 lung) was > 100 µM and the TGI (SR leukemia) was > 100 µM. For the same compound, the TGI (COLO 205 colon) was > 100 µM, the TGI (HL-60(TB) leukemia) was > 100 µM and the TGI (SK-MEL-5 melanoma) was > 100 µM. The TGI (MCF7 breast) was > 100 µM, the TGI (UACC-62 melanoma) was > 100 µM and the TGI (A498 renal) was > 100 µM. For the same compound, the TGI (SF-295 CNS) was > 100 µM, the TGI (SK-OV-3 ovarian) was > 100 µM and the TGI (UO-31 renal) was > 100 µM. For the same compound, the TGI (BT-549 breast) was > 100 µM, the TGI (SK-MEL-28 melanoma) was > 100 µM and the TGI (SF-539 CNS) was > 100 µM. For the same compound, the TGI (DU-145 prostate) was > 100 µM, the TGI (CAKI-1 renal) was > 100 µM and the TGI (K-562 leukemia) was > 100 µM. The TGI (OVCAR-3 ovarian) was > 100 µM, the TGI (SN12C renal) was > 100 µM and the TGI (SF-268 CNS) was > 100 µM. The TGI (CCRF-CEM leukemia) was > 100 µM, the TGI (NCI-H23 lung) was > 100 µM and the TGI (OVCAR-8 ovarian) was > 100 µM. The TGI (M14 melanoma) was > 100 µM and the TGI (MDA-MB-435) was > 100 µM.
